Assay results as given in the NIST ThermoML archive (doi:10.1021/je060353z).

Experiment: xn = mol fraction of the nth substance listed
Settings: 101 kPa, Liquid

Clc1ccccc1 [chlorobenzene] + CCCCCCO
Settings	mass density [kg/m3]	speed of sound [m/s]	viscosity [mPa·s]
298.15 K, x1 = 0.1144	842.629	1297.7	3.576
298.15 K, x1 = 0.2338	872.274	1289.8	2.746
298.15 K, x1 = 0.3573	904.193	1281.6	2.107
298.15 K, x1 = 0.4628	932.67	1274.8	1.699
298.15 K, x1 = 0.5568	959.077	1269.2	1.417
298.15 K, x1 = 0.6542	987.534	1264.3	1.184
298.15 K, x1 = 0.7457	1015.51	1260.9	1.008
298.15 K, x1 = 0.8353	1044.18	1259.3	0.873
298.15 K, x1 = 0.9171	1071.62	1260.9	0.788
298.15 K, x1 = 1	1100.97	1268	0.757
303.15 K, x1 = 0.1144	839.289	1280.6	3.096
303.15 K, x1 = 0.2338	868.705	1272.5	2.414
303.15 K, x1 = 0.3573	900.355	1264	1.87
303.15 K, x1 = 0.4628	928.591	1257.1	1.515
303.15 K, x1 = 0.5568	954.767	1251.6	1.274
303.15 K, x1 = 0.6542	982.986	1246.6	1.079
303.15 K, x1 = 0.7457	1010.71	1243.1	0.935
303.15 K, x1 = 0.8353	1039.12	1241.5	0.824
303.15 K, x1 = 0.9171	1066.27	1243.2	0.752
303.15 K, x1 = 1	1095.1	1249.4	0.714
308.15 K, x1 = 0.1144	835.421	1263.6	2.695
308.15 K, x1 = 0.2338	864.604	1255.4	2.123
308.15 K, x1 = 0.3573	895.988	1246.7	1.665
308.15 K, x1 = 0.4628	923.985	1239.7	1.369
308.15 K, x1 = 0.5568	949.942	1233.9	1.165
308.15 K, x1 = 0.6542	977.948	1228.9	0.997
308.15 K, x1 = 0.7457	1005.42	1225.4	0.87
308.15 K, x1 = 0.8353	1033.55	1224.3	0.772
308.15 K, x1 = 0.9171	1060.41	1225.8	0.711
308.15 K, x1 = 1	1089.08	1230.9	0.677
313.15 K, x1 = 0.1144	831.574	1246.5	2.35
313.15 K, x1 = 0.2338	860.561	1238.5	1.865
313.15 K, x1 = 0.3573	891.747	1229.8	1.478
313.15 K, x1 = 0.4628	919.571	1222.9	1.223
313.15 K, x1 = 0.5568	945.388	1216.7	1.044
313.15 K, x1 = 0.6542	973.227	1211.6	0.896
313.15 K, x1 = 0.7457	1000.53	1207.9	0.78
313.15 K, x1 = 0.8353	1028.46	1206.6	0.692
313.15 K, x1 = 0.9171	1055.09	1208.2	0.637
313.15 K, x1 = 1	1083.66	1212.6	0.617

CCCCCCCCCCO [decan-1-ol] + Clc1ccccc1
x2 = 0
Settings	mass density [kg/m3]	speed of sound [m/s]	viscosity [mPa·s]
298.15 K	826.762	1380	11.83
303.15 K	822.853	1365	9.754
308.15 K	819.427	1346.1	8.135
313.15 K	815.983	1329.3	6.842

CCCCCCCO [heptan-1-ol] + Clc1ccccc1
x2 = 0
Settings	mass density [kg/m3]	speed of sound [m/s]	viscosity [mPa·s]
298.15 K	818.732	1327.3	5.944
303.15 K	815.287	1313.6	5.069
308.15 K	811.737	1293.9	4.333
313.15 K	808.162	1277.2	3.726

CCCCCCO [hexan-1-ol] + Clc1ccccc1
x2 = 0
Settings	mass density [kg/m3]	speed of sound [m/s]	viscosity [mPa·s]
298.15 K	815.23	1304.7	4.594
303.15 K	812.118	1287.9	3.887
308.15 K	808.482	1271.1	3.359
313.15 K	804.811	1254.5	2.914
